In the supplement of paper PMC8612539:
In brackets after ≈: the same amount, converted by molar mass.

System: Mannheimia haemolytica
Assay: minimum inhibitory concentration (MIC)
Experimental: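 Broth microdilution MIC (Sensititre BOPO7F bovine plate, CLSI methods) of 19 antimicrobials against field isolates of P. multocida, M. haemolytica, H. somni (deep nasopharyngeal swabs) and E. coli, Enterococcus spp. (rectal swabs) from weaned dairy heifers. Incubation 16-24 h at 35 C. MIC is the lowest concentration preventing visible growth. Values with <= or > lie at the tested range limits. Trimethoprim-sulfamethoxazole is given as the trimethoprim component of a 1:19 mixture.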

`CN1C[C@@H]2C[C@H]1CN2c1cc2c(cc1F)c(=O)c(C(=O)O)cn2C1CC1` [Danofloxacin] was tested, and the minimum inhibitory concentration (isolate (source animal id): 8) was 0.5 µg/mL (≈ 1.4 µM), the minimum inhibitory concentration (isolate (source animal id): 13) was 0.5 µg/mL (≈ 1.4 µM) and the minimum inhibitory concentration (isolate (source animal id): 18) was 0.5 µg/mL (≈ 1.4 µM). The minimum inhibitory concentration (isolate (source animal id): 21) was 0.5 µg/mL (≈ 1.4 µM), the minimum inhibitory concentration (isolate (source animal id): 25) was 0.5 µg/mL (≈ 1.4 µM) and the minimum inhibitory concentration (isolate (source animal id): 27) was 0.25 µg/mL (≈ 0.7 µM). The minimum inhibitory concentration (isolate (source animal id): 28) was > 1 µg/mL, the minimum inhibitory concentration (isolate (source animal id): 30) was 0.5 µg/mL (≈ 1.4 µM) and the minimum inhibitory concentration (isolate (source animal id): 31) was > 1 µg/mL. The minimum inhibitory concentration (isolate (source animal id): 32) was 0.25 µg/mL (≈ 0.7 µM), the minimum inhibitory concentration (isolate (source animal id): 34) was 0.5 µg/mL (≈ 1.4 µM) and the minimum inhibitory concentration (isolate (source animal id): 36) was 0.5 µg/mL (≈ 1.4 µM). It also gave a minimum inhibitory concentration (isolate (source animal id): 37) of 0.5 µg/mL (≈ 1.4 µM), a minimum inhibitory concentration (isolate (source animal id): 40) of 0.5 µg/mL (≈ 1.4 µM) and a minimum inhibitory concentration (isolate (source animal id): 41) of 0.5 µg/mL (≈ 1.4 µM). For the same compound, the minimum inhibitory concentration (isolate (source animal id): 43) was 0.5 µg/mL (≈ 1.4 µM), the minimum inhibitory concentration (isolate (source animal id): 46) was 0.5 µg/mL (≈ 1.4 µM) and the minimum inhibitory concentration (isolate (source animal id): 49) was 0.5 µg/mL (≈ 1.4 µM). The minimum inhibitory concentration (isolate (source animal id): 50) was 0.5 µg/mL (≈ 1.4 µM), the minimum inhibitory concentration (isolate (source animal id): 51) was 0.5 µg/mL (≈ 1.4 µM) and the minimum inhibitory concentration (isolate (source animal id): 52) was 0.5 µg/mL (≈ 1.4 µM). For the same compound, the minimum inhibitory concentration (isolate (source animal id): 53) was 0.5 µg/mL (≈ 1.4 µM), the minimum inhibitory concentration (isolate (source animal id): 55) was 0.5 µg/mL (≈ 1.4 µM) and the minimum inhibitory concentration (isolate (source animal id): 56) was 0.5 µg/mL (≈ 1.4 µM). For the same compound, the minimum inhibitory concentration (isolate (source animal id): 57) was > 1 µg/mL, the minimum inhibitory concentration (isolate (source animal id): 100) was > 1 µg/mL and the minimum inhibitory concentration (isolate (source animal id): 103) was 0.5 µg/mL (≈ 1.4 µM). The minimum inhibitory concentration (isolate (source animal id): 107) was 0.5 µg/mL (≈ 1.4 µM), the minimum inhibitory concentration (isolate (source animal id): 108) was 0.5 µg/mL (≈ 1.4 µM) and the minimum inhibitory concentration (isolate (source animal id): 112) was 0.5 µg/mL (≈ 1.4 µM). For the same compound, the minimum inhibitory concentration (isolate (source animal id): 113) was > 1 µg/mL, the minimum inhibitory concentration (isolate (source animal id): 121) was 0.5 µg/mL (≈ 1.4 µM) and the minimum inhibitory concentration (isolate (source animal id): 122) was 0.5 µg/mL (≈ 1.4 µM). For the same compound, the minimum inhibitory concentration (isolate (source animal id): 123) was > 1 µg/mL, the minimum inhibitory concentration (isolate (source animal id): 126) was > 1 µg/mL and the minimum inhibitory concentration (isolate (source animal id): 133) was > 1 µg/mL. For the same compound, the minimum inhibitory concentration (isolate (source animal id): 135) was > 1 µg/mL, the minimum inhibitory concentration (isolate (source animal id): 138) was > 1 µg/mL and the minimum inhibitory concentration (isolate (source animal id): 141) was > 1 µg/mL. For the same compound, the minimum inhibitory concentration (isolate (source animal id): 142) was > 1 µg/mL, the minimum inhibitory concentration (isolate (source animal id): 145) was > 1 µg/mL and the minimum inhibitory concentration (isolate (source animal id): 149) was ≤ 0.12 µg/mL. For the same compound, the minimum inhibitory concentration (isolate (source animal id): 151) was ≤ 0.12 µg/mL, the minimum inhibitory concentration (isolate (source animal id): 152) was > 1 µg/mL and the minimum inhibitory concentration (isolate (source animal id): 154) was ≤ 0.12 µg/mL. The minimum inhibitory concentration (isolate (source animal id): 159) was > 1 µg/mL, the minimum inhibitory concentration (isolate (source animal id): 162) was > 1 µg/mL and the minimum inhibitory concentration (isolate (source animal id): 170) was ≤ 0.12 µg/mL. The minimum inhibitory concentration (isolate (source animal id): 171) was ≤ 0.12 µg/mL, the minimum inhibitory concentration (isolate (source animal id): 172) was ≤ 0.12 µg/mL and the minimum inhibitory concentration (isolate (source animal id): 173) was ≤ 0.12 µg/mL. For the same compound, the minimum inhibitory concentration (isolate (source animal id): 179) was ≤ 0.12 µg/mL, the minimum inhibitory concentration (isolate (source animal id): 180) was ≤ 0.12 µg/mL and the minimum inhibitory concentration (isolate (source animal id): 183) was ≤ 0.12 µg/mL. For the same compound, the minimum inhibitory concentration (isolate (source animal id): 186) was ≤ 0.12 µg/mL, the minimum inhibitory concentration (isolate (source animal id): 187) was ≤ 0.12 µg/mL and the minimum inhibitory concentration (isolate (source animal id): 188) was ≤ 0.12 µg/mL. The minimum inhibitory concentration (isolate (source animal id): 190) was ≤ 0.12 µg/mL, the minimum inhibitory concentration (isolate (source animal id): 191) was ≤ 0.12 µg/mL and the minimum inhibitory concentration (isolate (source animal id): 192) was ≤ 0.12 µg/mL. The minimum inhibitory concentration (isolate (source animal id): 201) was ≤ 0.12 µg/mL, the minimum inhibitory concentration (isolate (source animal id): 202) was ≤ 0.12 µg/mL and the minimum inhibitory concentration (isolate (source animal id): 209) was ≤ 0.12 µg/mL. For the same compound, the minimum inhibitory concentration (isolate (source animal id): 211) was ≤ 0.12 µg/mL, the minimum inhibitory concentration (isolate (source animal id): 220) was ≤ 0.12 µg/mL and the minimum inhibitory concentration (isolate (source animal id): 221) was ≤ 0.12 µg/mL. The minimum inhibitory concentration (isolate (source animal id): 223) was ≤ 0.12 µg/mL, the minimum inhibitory concentration (isolate (source animal id): 233) was > 1 µg/mL and the minimum inhibitory concentration (isolate (source animal id): 237) was > 1 µg/mL. For the same compound, the minimum inhibitory concentration (isolate (source animal id): 241) was > 1 µg/mL, the minimum inhibitory concentration (isolate (source animal id): 252) was 0.25 µg/mL (≈ 0.7 µM) and the minimum inhibitory concentration (isolate (source animal id): 253) was 0.5 µg/mL (≈ 1.4 µM). For the same compound, the minimum inhibitory concentration (isolate (source animal id): 259) was > 1 µg/mL, the minimum inhibitory concentration (isolate (source animal id): 260) was 0.5 µg/mL (≈ 1.4 µM) and the minimum inhibitory concentration (isolate (source animal id): 262) was > 1 µg/mL. For the same compound, the minimum inhibitory concentration (isolate (source animal id): 282) was > 1 µg/mL, the minimum inhibitory concentration (isolate (source animal id): 287) was 0.5 µg/mL (≈ 1.4 µM) and the minimum inhibitory concentration (isolate (source animal id): 288) was ≤ 0.12 µg/mL. The minimum inhibitory concentration (isolate (source animal id): 291) was ≤ 0.12 µg/mL, the minimum inhibitory concentration (isolate (source animal id): 293) was 0.5 µg/mL (≈ 1.4 µM) and the minimum inhibitory concentration (isolate (source animal id): 298) was 0.5 µg/mL (≈ 1.4 µM). The minimum inhibitory concentration (isolate (source animal id): 299) was 0.5 µg/mL (≈ 1.4 µM), the minimum inhibitory concentration (isolate (source animal id): 300) was ≤ 0.12 µg/mL and the minimum inhibitory concentration (isolate (source animal id): 302) was 0.5 µg/mL (≈ 1.4 µM). For the same compound, the minimum inhibitory concentration (isolate (source animal id): 304) was 0.5 µg/mL (≈ 1.4 µM), the minimum inhibitory concentration (isolate (source animal id): 306) was ≤ 0.12 µg/mL and the minimum inhibitory concentration (isolate (source animal id): 308) was ≤ 0.12 µg/mL. For the same compound, the minimum inhibitory concentration (isolate (source animal id): 309) was ≤ 0.12 µg/mL, the minimum inhibitory concentration (isolate (source animal id): 313) was 0.5 µg/mL (≈ 1.4 µM) and the minimum inhibitory concentration (isolate (source animal id): 318) was 0.25 µg/mL (≈ 0.7 µM). For the same compound, the minimum inhibitory concentration (isolate (source animal id): 320) was ≤ 0.12 µg/mL, the minimum inhibitory concentration (isolate (source animal id): 321) was 0.5 µg/mL (≈ 1.4 µM) and the minimum inhibitory concentration (isolate (source animal id): 323) was 0.5 µg/mL (≈ 1.4 µM). It also gave a minimum inhibitory concentration (isolate (source animal id): 324) of 0.5 µg/mL (≈ 1.4 µM), a minimum inhibitory concentration (isolate (source animal id): 326) of 0.5 µg/mL (≈ 1.4 µM) and a minimum inhibitory concentration (isolate (source animal id): 328) of 0.5 µg/mL (≈ 1.4 µM). The minimum inhibitory concentration (isolate (source animal id): 329) was 0.5 µg/mL (≈ 1.4 µM), the minimum inhibitory concentration (isolate (source animal id): 333) was 0.5 µg/mL (≈ 1.4 µM) and the minimum inhibitory concentration (isolate (source animal id): 335) was 0.5 µg/mL (≈ 1.4 µM). For the same compound, the minimum inhibitory concentration (isolate (source animal id): 338) was 0.5 µg/mL (≈ 1.4 µM).
